SMILES strings stand for the structures.

The nature of the data set: in vitro. The note with it: human, hela cells, % viability.
Turning to `CCOCc1c(O)ccc2c([N+](=O)[O-])c(C)n(-c3ccc(OC)cc3)c12` [CBK095589], the viability at 28.5 h, 10 µM is 87.8%. Take `COc1ccc(S(=O)(=O)Nc2nc3c(s2)C(=O)CC(C)(C)C3)cc1` [CBK095611]: the viability at 28.5 h, 10 µM turned out to be 94.7%. Next, `O=C1NN(c2ccc(F)c(Cl)c2)C(=O)/C1=C/c1ccc(-c2ccc(Cl)cc2)o1` [CBK095978]: 98.1%. Under `Cc1cc2nc(-c3ccc(C(=O)O)cc3)[nH]c2cc1C` [CBK096054] stands 91.6%; under `CCCCC(=O)Nc1nc(-c2ccc(S(=O)(=O)N3CCOCC3)cc2)cs1` [CBK096107], 86%. Under `CCOC(=O)C1CCCCN1S(=O)(=O)c1ccc(Br)s1` (stereo not shown) [CBK096110] stands 102%; under `CC(C)C(=O)Nc1cccc(-c2cn3ccsc3n2)c1` [CBK096253], 67%; under `COc1cccc(C(=O)Nc2nc(-c3ccc(S(=O)(=O)N4CCCC4)cc3)cs2)c1` [CBK096257], 89%. For the compound `N#Cc1ccc(-c2nc3cc(Cl)c(F)cc3[nH]2)cc1` [CBK096290], the viability at 28.5 h, 10 µM came out at 90.6%.

Regarding `O=C(Nc1nc(-c2ccc(S(=O)(=O)N3CCCC3)cc2)cs1)C1COc2ccccc2O1` (stereo not shown) [CBK096353], the viability at 28.5 h, 10 µM worked out at 101%. As to `O=S(=O)(Nc1nc2c(s1)CCCC2)c1cc(Cl)ccc1Cl` [CBK096578], the viability at 28.5 h, 10 µM came out at 98.7%.

On to `CN(C)c1ccc(/C=C2/C(=N)N3N=C(c4ccccc4Cl)SC3=NC2=O)cc1` [CBK097554], for which the viability at 28.5 h, 10 µM was determined as 94.6%.

Turning to `COc1cc(OC)cc(C(=O)Nc2cccc(-c3nc4ccccc4o3)c2)c1` [CBK097706], the viability at 28.5 h, 10 µM came out at 95.5%. Under `O=S(=O)(Nc1nc2c(s1)CCCC2)c1ccc(Br)cc1` [CBK097787] stands 89.7%; under `CCN(CC)c1ccc(NC(=O)c2cccc(OC)c2OC)c(C)c1` [CBK097801], 92.2%.

Take `CCCCOc1ccc2c(C(F)(F)F)cc(=O)oc2c1` [CBK097821]: the viability at 28.5 h, 10 µM is 104%. For `Cc1cccc(S(=O)(=O)N2CCN(C)CC2)c1` [CBK097893], the viability at 28.5 h, 10 µM was 93.6%.

As for `O=S(=O)(c1cc(Cl)ccc1Cl)N1CCSC1` [CBK097980], the viability at 28.5 h, 10 µM came out at 99.4%. Next, `Cc1csc2nc(-c3ccccc3)cn12` [CBK098072]: 108%. Next, `CCOC(=O)c1cnn(-c2cc(Oc3ccccc3)ncn2)c1N` [CBK098284]: 105%. Regarding `N#CC1CCCc2c1[nH]c1ccccc21` (stereo not shown) [CBK098397], the viability at 28.5 h, 10 µM amounted to 74.9%. Consider `CCOC(=O)c1cnc(SCc2nc(N)nc(Nc3ccc(F)cc3)n2)nc1N` [CBK098477], for which the viability at 28.5 h, 10 µM turned out to be 82.3%. Next, `COC(=O)c1cnn(-c2cc(Oc3ccccc3C)ncn2)c1N` [CBK098668]: 102%; `COc1cc(OC)cc(C(=O)Nc2ccc(C(=O)c3ccccc3)cc2)c1` [CBK098732]: 106%. Under `CCc1ccc(C2CC(=O)c3c(ccc4ccccc34)N2)cc1` (stereo not shown) [CBK098787] stands 93.8%.

Consider `CCCOc1c(Cl)cc(/C=C2\N=C(c3ccc(OC)cc3)OC2=O)cc1OCC` [CBK098846], for which the viability at 28.5 h, 10 µM came to 93.3%. For the compound `CCN1C(=O)C(F)(CC)C(=O)c2ccccc21` (stereo not shown) [CBK098854], the viability at 28.5 h, 10 µM is 107%. Under `O=c1[nH]c2ccccc2n1C1CCN(CCOC(c2ccc(F)cc2)c2ccc(F)cc2)CC1` [CBK099807G] stands 101%. With `COc1cc(OC)cc(C(=O)Nc2nnc(C(F)(F)F)s2)c1` [CBK099828], the viability at 28.5 h, 10 µM was 88.7%. Next, `Cc1ccc(-c2csc3ncn(Cc4ccccc4C)c(=O)c23)cc1C` [CBK099921]: 104%; `O=C(Nc1ccc(-c2ccccc2C(F)(F)F)s1)C(F)(F)F` [CBK099942]: 96.3%; `OCCn1c(S)nnc1-c1ccccc1` [CBK100025]: 85.4%. Under `CCN1CCN(S(=O)(=O)c2ccc(Br)cc2)CC1` [CBK100197] stands 99.7%. Take `CCN1CCN(S(=O)(=O)c2ccccc2F)CC1` [CBK100558]: the viability at 28.5 h, 10 µM is 104%. Under `Nc1ncc2cc(C(F)(F)F)ccc2n1` [CBK100705] stands 107%; under `CC(=O)c1cc2c(N)c(C(N)=O)sc2nc1C` [CBK100769], 102%.

In the case of `CCOC(=O)c1cc2c3ccccc3n(CC)c2nc1N` [CBK100822], the viability at 28.5 h, 10 µM was 94%.

As for `CC(=O)NCC(=O)N(c1ccccc1)C1(C(=O)NC(c2ccccc2)c2ccccc2)CCCC1` [CBK100884], the viability at 28.5 h, 10 µM was found to be 102%.

With `O=C(O)c1cc(Br)cc2c3c([nH]c12)CCCC3` [CBK100973], the viability at 28.5 h, 10 µM stood at 99.7%. Under `N=C1NC(=O)/C(=C/c2ccc(O)c(Cl)c2)S1` [CBK100992] stands 109%.

As to `O=C(O)c1cccc2c1C(=O)N(c1ccccc1)C2` [CBK101054], the viability at 28.5 h, 10 µM stood at 91.4%. Regarding `COc1ccc(-n2nnnc2SCc2ccc(Cl)cc2)cc1` [CBK101068], the viability at 28.5 h, 10 µM was determined as 60.7%. Next, `CCN(CC)CCNC(=O)C1CCCCN1S(=O)(=O)c1ccc(C)cc1` (stereo not shown) [CBK101088]: 89.9%; `COc1cc(C(=O)Nc2cc(-c3nc4ncccc4o3)ccc2C)cc(OC)c1OC` [CBK101133]: 97%; `CCn1c2ccccc2c2cc(/C=N/N3CCN(c4ccccc4OC)CC3)ccc21` [CBK101168]: 92.6%.

In the case of `COc1ccccc1N(CC(=O)NC(C(C)C)C(C)C)S(=O)(=O)c1ccccc1` [CBK101384], the viability at 28.5 h, 10 µM came out at 91.4%. Next, `O=C1NCCc2c1[nH]c1ccccc21` [CBK101624]: 65.5%; `C=CCn1c(SCC(=O)Nc2ccc(C(=O)OC)cc2)nnc1-c1ccc(Br)cc1` [CBK101797]: 92.8%. Take `CCC1=NN2C(=N)/C(=C/c3ccc(OC)cc3)C(=O)N=C2S1` [CBK101905]: the viability at 28.5 h, 10 µM amounted to 95.6%. With `COc1cc(/C=C2\NC(=S)NC2=O)c(Cl)cc1O` [CBK102003], the viability at 28.5 h, 10 µM is 65.5%. Under `CC1CCN(S(=O)(=O)c2cccs2)CC1` [CBK102093] stands 118%; under `CCOc1cc(/C=C2\N=C(c3ccc(OC)cc3)OC2=O)cc(Br)c1OCC(=O)OC` [CBK102552], 96.3%; under `O=C(Nc1nc(-c2cccc([N+](=O)[O-])c2)cs1)c1ccc(S(=O)(=O)N2CCCC2)cc1` [CBK102813], 86.5%. As for `O=C1S/C(=C\c2ccc(O)c([N+](=O)[O-])c2)C(=O)N1Cc1ccc(F)cc1` [CBK102928], the viability at 28.5 h, 10 µM is 94.9%. With `O=C1S/C(=C\c2ccc(O)c([N+](=O)[O-])c2)C(=O)N1Cc1ccc(Cl)cc1` [CBK102929], the viability at 28.5 h, 10 µM worked out at 87.2%. Next, `COc1ccc([N+](=O)[O-])cc1NC(=O)c1nc(C)c(C)nc1C(=O)O` [CBK103387]: 82.6%; `c1cc(-c2ccc(OC3CCNCC3)cc2)c2cccnc2c1` [CBK103528T]: 92.7%; `CCOC(=O)Cn1[nH]c(COC(C)(C)C)c(Cc2c(Cl)cccc2Cl)c1=O` [CBK103551]: 114%. For `Cc1ccccc1NS(=O)(=O)c1cc(CN2C[C@@H](C)NC[C@@H]2C)c2occc2c1` [CBK103579T], the viability at 28.5 h, 10 µM came out at 102%. As to `CCOC(=O)Cn1[nH]c(CO)c(Cc2c(Cl)cccc2Cl)c1=O` [CBK103580], the viability at 28.5 h, 10 µM was 92.2%. On to `CC(C)Nc1nccnc1SCc1ccc(Cl)c(Cl)c1` [CBK103657], for which the viability at 28.5 h, 10 µM was found to be 89.8%. Next, `CC(C)Nc1cc(SCc2ccc(Cl)c(Cl)c2)ncn1` [CBK103665]: 85.1%.

`CC(C)Nc1nc2ccccc2nc1SCCc1ccncc1` [CBK103670]: the viability at 28.5 h, 10 µM stood at 87.8%. Next, `CC(C)CSc1nccnc1N1CCCC1` [CBK103683]: 97.7%; `c1ccc(OCCSc2nc3ccccc3nc2N2CCCC2)cc1` [CBK103694]: 102%. On to `c1ccc2nc(N3CCCC3)c(SCCc3cnccn3)nc2c1` [CBK103695], for which the viability at 28.5 h, 10 µM turned out to be 106%. Next, `CC(=O)NCCSc1nc2ccccc2nc1N1CCCC1` [CBK103696]: 99%. Next, `Clc1cc2nc(SCCc3cnccn3)c(N3CCCC3)nc2cc1Cl` [CBK103700]: 93.1%; `CC(=O)NCCSc1nc2cc(Cl)c(Cl)cc2nc1N1CCCC1` [CBK103701]: 96.3%. Under `FC(F)(F)c1ccc(SCc2ccc(Cl)c(Cl)c2)nc1` [CBK103713] stands 95.3%; under `FC(F)(F)c1cccc(SCCc2ccccn2)n1` [CBK103719], 97.3%; under `FC(F)(F)c1ccnc(SCc2ccc(Cl)c(Cl)c2)n1` [CBK103723], 85.6%.

Consider `FC(F)(F)c1nc2ccccc2nc1SCc1cccs1` [CBK103728], for which the viability at 28.5 h, 10 µM is 105%. On to `FC(F)(F)c1nc2ccccc2nc1SCCc1ccccn1` [CBK103731], for which the viability at 28.5 h, 10 µM is 109%.

Regarding `FC(F)(F)c1nc2ccccc2nc1SCc1ccccc1` [CBK103732], the viability at 28.5 h, 10 µM is 87%. Regarding `COc1ccc2c(c1)C1(Nc3ccccc3C(=O)N1c1ccccc1)C(=O)N2` (stereo not shown) [CBK103747], the viability at 28.5 h, 10 µM turned out to be 94.1%. Take `Cc1cccc(C)c1N1C(=O)c2ccccc2NC12C(=O)Nc1ccc([N+](=O)[O-])cc12` (stereo not shown) [CBK103749]: the viability at 28.5 h, 10 µM was found to be 80.6%. Next, `CC1SC2(C(=O)Nc3ccccc32)N(c2ccc(Oc3ccccc3)cc2)C1=O` (stereo not shown) [CBK103750]: 92.5%. Under `Cc1ccc(N2C(=O)c3ccccc3NC23C(=O)N(C)c2ccc(Br)cc23)cc1` (stereo not shown) [CBK103752] stands 85.2%; under `CC(C)C(=O)NC(C)c1nc(-c2ccncc2)n[nH]1` (stereo not shown) [CBK104021], 113%. Consider `O=C(Nc1cccnc1)c1ncoc1-c1ccc(F)cc1` [CBK104357], for which the viability at 28.5 h, 10 µM stood at 106%. As to `CCCc1[nH]n(CC(=O)OCC)c(=O)c1Cc1c(Cl)cccc1Cl` [CBK104764], the viability at 28.5 h, 10 µM was determined as 94.4%.
